The text below walks through data of the pKa sets of Baltruschat and Czodrowski (2020).

One may read the pKa as the negative logarithm of the acid dissociation constant.

For one data set the following is noted: acidic group.
Compound `O=C(O)Cn1nnnc1-c1ccccc1` registered a pKa of 2.11. In the case of `O=C(O)Cc1cccc2ccccc12`, the pKa was 4.24. On the same count and under the same terms, as for `Oc1ccc(Cl)c2ccccc12`, the figure is 8.64.

Regarding `Sc1ccc2ncccc2c1`, the pKa stood at 6.5. Still for that read-out and setting: as for `CCO/C([O-])=N/c1ncnc2nc[nH]c12`, the figure is 12.2; as for `N#CC(C#N)=NNc1ccccc1Br`, 6.35.

For `O/N=C1\CCCCC\C1=N/O`, the pKa is 10.7. On the same count and under the same terms, as for `Oc1cccc2scnc12`, the figure is 8.77; as for `O=C([O-])c1ccc(O)c([N+](=O)[O-])c1`, 6.41; as for `COc1ccccc1-c1ccccc1O`, 10.4. Still for that read-out and setting: as for `CC1=C/C(=N\c2ccc(O)cc2)C(C(C)C)=CC1=O`, the figure is 8.85; as for `c1ccc(CSc2ncn[nH]2)cc1`, 9.5; as for `C/C=C(\Cl)C(=O)O`, 3.22. On the same count and under the same terms, in the case of `C[n+]1ccccc1N` it was 12.2. In turn, `CN1Cc2[nH]cnc2N(C)C1=O` registered a pKa of 11.2.

`CC(C)CCC1C(=O)C(O)C(CCC(C)C)(CCC(C)C)C1=O` (stereo not given) showed a pKa of 6.3. The same measure, in the same setting: as for `N#CO`, the figure is 3.67; as for `C[C@H]([NH3+])C(=O)N[C@@H](Cc1c[nH]c[nH+]1)C(=O)O`, 2.73. On the same count and under the same terms, as for `Cc1csc(NS(=O)(=O)c2ccc(N)cc2)n1`, the figure is 7.12; as for `CCOc1cccc[n+]1O`, 1.18; as for `O=C(O)[C@@H]1O[C@H](Oc2ccc(I)cc2)[C@@H](O)[C@H](O)[C@H]1O`, 3.28.

As to `Cc1cc(C(=O)O)n[nH]1`, the pKa stood at 3.99.

`O=C([O-])/C(=N\O)c1ccccc1` came in with a pKa of 10.9.

In turn, `Cc1cccc(S(N)(=O)=O)c1` returned a pKa of 9.51. On the same count and under the same terms, as for `C[n+]1cccc(S)c1`, the figure is 2.27; as for `CC(=O)N[C@H]1CONC1=O`, 5.8. Same read-out and setting: in the case of `O=C(O)C1COCCO1` (stereo not given) it was 3.15. On the same count and under the same terms, as for `C=CCC1(CC=C)SC(=O)NC1=O`, the figure is 6.1; as for `COC1=CC2CCC1(C(=O)O)CC2`, 4.45. In turn, `S=C(NCc1ccccc1)c1ccccc1` showed a pKa of 12.2. Take `COc1ccccc1CCC(=O)O`: the pKa is 4.8.

For the compound `CC(C)=CCC(=O)O`, the pKa was 4.6. `C[NH+](C)c1ccc(/C=C/c2cc[n+](O)cc2)cc1` showed a pKa of 1.05. Same read-out and setting: in the case of `Cc1cc(O)ccc1[N+](C)(C)C` it was 8.34; in that of `C[n+]1cccc(C(=O)Cc2ccccc2)c1`, 10.3; in that of `O=[N+]([O-])CCO`, 9.4. Still for that read-out and setting: in the case of `O=C([O-])[C@@H](P)CC[C@H](P)C(=O)O` it was 4.41; in that of `CCCCC([NH3+])C(=O)O` (stereo not given), 2.29. As for `CC[NH2+]CCC(=O)O`, the pKa was 3.61. `Cc1cc(C(=O)O)cc(C)[n+]1O` showed a pKa of -0.01. As for `c1ccc2[nH]cnc2c1`, the pKa turned out to be 12.6. As to `Nc1nc(N)nc([S-])n1`, the pKa stood at 10.2. Same read-out and setting: in the case of `O=C([O-])CNC(=O)c1cccc(O)c1O` it was 7.7; in that of `NNC(=O)CF`, 11.3. In the case of `CSc1ccc(O)cc1`, the pKa amounted to 9.5. For `O=c1ccc(O)ccc1[O-]`, the pKa was 10.1. On to `O=C(O)C(CO)[NH2+]Cc1cc([N+](=O)[O-])ccc1O` (stereo not given), for which the pKa is 2.15. Same read-out and setting: as for `Cc1ccc([Se](=O)O)cc1`, the figure is 4.88; as for `NC(=O)CS(=O)(=O)NC(N)=O`, 5.05.

Regarding `Ic1ccc(-c2nnn[nH]2)cc1`, the pKa is 3.88.

Regarding `C/C(=N\O)C(=O)[O-]`, the pKa is 11.4.

Compound `O=C(O)CCc1ccoc1` yielded a pKa of 4.44. With `COc1cccc(O)c1O`, the pKa stood at 9.28. The same measure, in the same setting: as for `O=C(O)C[Se]c1ccccc1[N+](=O)[O-]`, the figure is 3.45; as for `CC(=O)N(c1ccccc1)c1nnc(S(N)(=O)=O)s1`, 7.32. Same read-out and setting: as for `Oc1nc2cc3c(cc2[nH]1)CCCC3`, the figure is 12.2; as for `C[n+]1cccc2c(S)cccc21`, 3.22.

The same data set, now with this note: basic group.
As for `CN1C[C@@H](C(=O)[O-])C[C@H]2c3cccc4[nH]cc(c34)C[C@@H]21`, the pKa was determined as 8.47. On the same count and under the same terms, in the case of `c1ccc2c(c1)CCC2N(c1ccc2ccccc2c1)C1CCc2ccccc21` (stereo not given) it was 0.25; in that of `N=C(N)Nc1nc(N)nc(N)n1`, 9.4; in that of `c1ccc(Nc2nccs2)cc1`, 4.33. Same read-out and setting: in the case of `CNCCC#N` it was 8.1; in that of `N/C(CCNc1ccccc1)=N\O`, 5.35. For `O=C([O-])C(CO)NCc1cc(Cl)ccc1[O-]` (stereo not given), the pKa worked out at 10.2. On the same count and under the same terms, as for `Nc1nc(N)c2cn[nH]c2n1`, the figure is 5.58; as for `[S-]CCNCCc1ccccc1`, 10.3; as for `CC(C)(C)NCCCCCCNC(C)(C)C`, 11.

For the compound `NCCCCNCCCN`, the pKa amounted to 10.6.

Turning to `CC(=O)NC(Cc1c[nH]cn1)C(=O)[O-]` (stereo not given), the pKa worked out at 7.11. Same read-out and setting: as for `N#CC(C#N)=NNc1ccccc1Br`, the figure is -0.8; as for `Oc1cccc2scnc12`, 1.25.

Compound `CN1CC1` had a pKa of 7.86. On the same count and under the same terms, in the case of `C[C@@H]1CCN2CC[C@H](O)[C@H]12` it was 10.9; in that of `CC(=O)C1C(=O)c2ccccc2C1=O`, 2.88. The same measure, in the same setting: in the case of `CC(CCN(C)C)NN` (stereo not given) it was 9.23; in that of `CN[C@@H]1[C@@H](C)[C@@H]1NC`, 9.13. Still for that read-out and setting: in the case of `CCCN(CC)C(CC)C(=O)Nc1c(C)cccc1C` (stereo not given) it was 6.62; in that of `c1ccc(-c2cnc(-c3ccccc3)o2)cc1`, 0.84; in that of `CCc1ccc(O)c(CN(C)C)c1`, 8.51. The compound `Cc1nc2ncccc2[nH]1` registered a pKa of 4.6.

`Cc1ccc(C(=N)c2ccccc2)c(C)c1` registered a pKa of 6.79. On the same count and under the same terms, as for `c1ccc2c(c1)[NH+]=C(c1ccncc1)[NH2+]2`, the figure is 1.96.

As for `CCCCCCCCCCCCNCCCCCCCCCCCC`, the pKa is 11.

The compound `[NH3+]CCCCc1ccccn1` yielded a pKa of 5.56. The same measure, in the same setting: as for `Nc1cccc(C(=O)[O-])c1`, the figure is 4.7. In the case of `Cc1ccc2c(c1)CC(=O)CC2`, the pKa was found to be 12.9. Same read-out and setting: as for `C1CNCCNCCN1`, the figure is 10.6; as for `CN(CCC#N)CCC#N`, 4.24. Take `N/C(CC(N)c1ccccc1)=N\O` (stereo not given): the pKa was determined as 8. The same measure, in the same setting: as for `CNCCN(C)CCNC`, the figure is 10.4; as for `c1cncc(-c2cccnc2)c1`, 4.6. Same read-out and setting: as for `c1ccc2[nH]cnc2c1`, the figure is 5.51; as for `Nc1nc(N)nc([S-])n1`, 7.8. The compound `Cc1ccc(/C(N)=N/O)cc1` had a pKa of 5.14. On the same count and under the same terms, as for `NCC1CCCCC1`, the figure is 10.5; as for `COc1ccc(-c2cn3cccnc3n2)c(OC)c1`, 4.34. Still for that read-out and setting: as for `NCC(=O)NCCc1c[nH]cn1`, the figure is 8.04. Same read-out and setting: in the case of `CC(C)N` it was 10.6; in that of `CN(C)CCCCCCNC(=O)/C=N/[O-]`, 10.4. In turn, `CN(C)CCOC(C)(c1ccccc1)c1ccccn1` (stereo not given) registered a pKa of 9.2. The same measure, in the same setting: in the case of `CC(CN)C(=O)[O-]` (stereo not given) it was 9.91; in that of `COCCN(CCOC)c1ccccc1`, 4.11. Regarding `Cc1[nH]c(C)c(C)c1C`, the pKa was 3.77. On the same count and under the same terms, as for `CC(C)=NNC1CCN(C)CC1`, the figure is 8.9.

Consider `CCN1CCC[C@@H]1CNC(=O)c1c([O-])c(Br)cc(Br)c1OC`, for which the pKa amounted to 9.12.
